{
  "source": "patent US8546430B2",
  "about": "“Thalidomide analogs” (P2D, Inc., priority 2003, dated 2013)",
  "key": {"TNF-α": {"tested_on": "TNF-α", "experiment": "Inhibition of LPS-induced TNF-α secretion in human PBMC (ELISA)", "type": "cell-based", "conditions": "for IC50 / inhibition at 30 µM: Homo sapiens, LPS-induced TNF-α production in PBMC; for TNF-α inhibitory activity (in words): LPS-stimulated PBMC; for Fold more active than thalidomide 201: inhibition of TNF-α synthesis, from IC50 values", "protocol": "(§1) The action of the these thiothalidomide analogs in inhibiting TNF-α secretion was assessed in human peripheral blood mononuclear cells (PBMC) and the results are shown in Table 1. Freshly prepared PBMCs were utilized in all studies. Blood, 40 ml, was drawn from a volunteer, immediately mixed with 50 U/ml Na heparin and was diluted to 50 ml total volume with sterile PBS. Samples, 20 ml, of this preparation then were layered on 20 ml Ficoll-Paque and were centrifuged (800 g, 20 min). The Ficoll/serum interface, containing PBMCs, was collected, diluted to 200 ml with PBS, and then was centrifuged (800 g, 15 min) to pellet the cells. Thereafter, the recovered pellet was re-suspended in 37° C. tissue culture medium (RPMI/1 mM Sodium pyruvate/10% heat inactivated FBS/2 mM Glutamax) and placed on ice. Recovered cells were counted, pipetted (200 ul of 5×10^5/ml) into 96 well plates, and incubated for an hour (37° C., 5% CO2). Thereafter, appropriate concentrations of test compounds or vehicle (10 ul DMSO) were added to duplicate wells. Following a further hour of incubation, a 10 ul sample of lipopolysaccharide (LPS) (100 ng/ml in supplemented medium) or vehicle was added to induce stimulated and unstimulated cells, respectively, and the cells were incubated overnight. Sixteen hours later, supernatants were collected for quantification of TNF-α levels by ELISA assay (Pierce-Endogen human TNF-α mini kit, Rockford, Ill.) and the use of specific capture and detection monoclonal antibodies, M303E and M302B (Pierce-Endogen), respectively. ELISA plates were read at λ=450 nm and TNF-α levels were determined from a six-point calibration curve that was run concurrently with the test samples. The effect of test drug concentrations on the cellular viability of PBMCs was assessed by MTS assay (Promega, Madison, Wis.) of the cells that provided the supernatant samples assayed for TNF-α levels, described above. It should be understood that this method can be used to test any of the disclosed compounds as a screening assay for readily determining their TNF-α modulating activity, and for selecting them for use in the disclosed method of treating a subject."}, "3′-UTR of human TNF-α": {"tested_on": "3′-UTR of human TNF-α", "experiment": "Luciferase reporter assay, RAW264.7 cells with vs without the TNF-α 3′-UTR", "type": "cell-based", "conditions": "mouse macrophage line RAW264.7, 16 h; FIG. 1", "protocol": "To determine the involvement of the 3′-UTR in the action of the thalidomide analogs, their ability to inhibit reporter gene activity in cells containing the TNF-α3′-UTR versus a control vector was assessed. This cell-based assay utilized two stably transfected cell lines derived from the mouse macrophage line, RAW264.7. One line, designated “luciferase only” expressed a luciferase reporter construct without any UTR sequences. The other line, designated “luciferase+TNF-α UTR” expressed a luciferase reporter construct with the entire 3′-UTR of human TNF-α inserted directly downstream of the luciferase coding region. Compounds were added in a concentration-dependent manner, and at the end of the incubation period (16 h, 37° C., 5% CO2) the media was removed, cells were lysed and luciferase activity was assayed with Steady-glo luciferase assay reagent (Promega) according to the supplier's directions. Background was subtracted and data from this assay was expressed as a ratio of the +3′-UTR to −3′-UTR (control) values, and was expressed as a percent as shown in FIG. 1. In this manner, compounds that show a differential effect on the two cell lines, with and without a 3′-UTR, are highlighted. […] All agents lowered luciferase reporter activity in cells stably expressing the 3′-UTR."}, "PBMC": {"tested_on": "PBMC", "experiment": "Cellular viability of PBMCs by MTS assay", "type": "cell-based, human", "protocol": "as §1"}, "rat aortic ring": {"tested_on": "rat aortic ring", "experiment": "Rat aortic ring microvessel growth assay", "type": "cell-based", "conditions": "0.1-20 μg/ml daily for 4 days; FIGS. 2-11", "protocol": "The angiogenesis modulating activity of representative compounds was assessed in a rat aortic ring microvessel growth assay. Briefly, twelve-well tissue culture plates were coated with 250 μl of Matrigel (Becton-Dickinson, Bedford, Mass.) and allowed to gel for 30 min at 37° C. and 5% CO2. Thoracic aortas were excised from 8- to 10-week-old male Sprague Dawley rats. After careful removal of fibroadipose tissues, the aortas were cut into 1-mm-long cross-sections, placed on Matrigel-coated wells, and covered with an additional 250 μl of Matrigel. After the second layer of Matrigel had set, the rings were covered with EGM-II and incubated overnight at 37° C. and 5% CO2. EGM-II consists of endothelial cell basal medium (EBM-II; Clonetics, San Diego, Calif.) plus endothelial cell growth factors provided as the EGM-II Bulletkit (Clonetics). The culture medium was subsequently changed to EBM-II supplemented with 2% fetal bovine serum, 0.25 μg/ml amphotericin B, and 10 μg/ml gentamicin. Aortic rings were treated daily with either the vehicle (0.5% DMSO), carboxyamidotriazole (CAI, 12 μg/ml), thalidomide or thalidomide analogs (0.1-20 μg/ml) for 4 days and photographed on the 5th day using a ×2.5 objective. CAI, a known antiangiogenic agent, was used at higher than clinically achievable concentration as a positive control. Experiments were repeated four times using aortas from four different rats. The area of angiogenic sprouting, reported in square pixels, was quantified using Adobe PhotoShop. Further details of the method are provided in Luzzio et al., J Med Chem.; 46:3793-9, 2003, which is incorporated by reference herein. It should be understood that this method can be used as an assay to rapidly select compounds having a desired angiogenic or anti-angiogenic effect, for example, for use in the disclosed methods of treating a subject."}},
  "note": "Entries after “also recorded” stand apart in the source; their conditions may differ.",
  "data": [
    {"smiles": "S=C1CCCC(=S)N1", "note": "[Compound 219, 2,6-Piperidinedithione]", "values": [
      {"measurement": "IC50", "setting": "TNF-α", "value": 8, "unit": "µM"},
      {"measurement": "inhibition at 30 µM", "setting": "TNF-α; 30 μM", "value": 75, "unit": "%"},
      {"measurement": "TNF-α inhibitory activity (in words)", "setting": "TNF-α", "value": "potent inhibitory effect; also recorded: potently inhibited TNF-α secretion"},
      {"measurement": "Fold more active than thalidomide 201", "setting": "TNF-α", "value": 25, "unit": "fold"},
      {"measurement": "Luciferase reporter activity, +3′-UTR versus −3′-UTR cells (in words)", "setting": "3′-UTR of human TNF-α", "value": "differential effect on the two cell lines in a dose-dependent manner"},
      {"measurement": "Toxicity / cytotoxicity (in words)", "setting": "PBMC", "value": "lack of toxicity; also recorded: without toxicity"},
      {"measurement": "Cell viability at 0.3 μM", "setting": "PBMC", "value": 99, "unit": "%"},
      {"measurement": "Cell viability at 3 μM", "setting": "PBMC", "value": 98, "unit": "%"},
      {"measurement": "Cell viability at 30 μM", "setting": "PBMC", "value": "> 100", "unit": "%"},
      {"measurement": "melting point", "value": 103, "unit": "°C"}
    ]},
    {"smiles": "O=C1NC(=S)CCC1N1C(=O)c2ccccc2C1=S", "note": "(centres unmarked) [Compound 215, 2,3-dihydro-3-thioxo-2-(2-oxo-6-thioxo-3-piperidinyl)-1H-isoindol-1-one]", "values": [
      {"measurement": "IC50", "setting": "TNF-α", "value": 11, "unit": "µM"},
      {"measurement": "inhibition at 30 µM", "setting": "TNF-α; 30 μM", "value": 61, "unit": "%"},
      {"measurement": "TNF-α inhibitory activity (in words)", "setting": "TNF-α", "value": "potently inhibited TNF-α secretion"},
      {"measurement": "Luciferase reporter activity, +3′-UTR versus −3′-UTR cells (in words)", "setting": "3′-UTR of human TNF-α", "value": "differential effect on the two cell lines in a dose-dependent manner"},
      {"measurement": "Toxicity / cytotoxicity (in words)", "setting": "PBMC", "value": "without toxicity"},
      {"measurement": "Cell viability at 0.3 μM", "setting": "PBMC", "value": 94, "unit": "%"},
      {"measurement": "Cell viability at 3 μM", "setting": "PBMC", "value": 87, "unit": "%"},
      {"measurement": "Cell viability at 30 μM", "setting": "PBMC", "value": "> 100", "unit": "%"}
    ]},
    {"smiles": "O=C1c2ccccc2C(=S)N1C1CCC(=S)NC1=S", "note": "(centres unmarked) [Compound 216, 2,3-Dihydro-3-thioxo-2-(2,6-dithioxo-3-piperidinyl)-1H-isoindol-1-one]", "values": [
      {"measurement": "IC50", "setting": "TNF-α", "value": 6, "unit": "µM"},
      {"measurement": "inhibition at 30 µM", "setting": "TNF-α; 30 μM", "value": 79, "unit": "%"},
      {"measurement": "TNF-α inhibitory activity (in words)", "setting": "TNF-α", "value": "potently inhibited TNF-α secretion"},
      {"measurement": "Fold more active than thalidomide 201", "setting": "TNF-α", "value": "over 30 fold"},
      {"measurement": "Luciferase reporter activity, +3′-UTR versus −3′-UTR cells (in words)", "setting": "3′-UTR of human TNF-α", "value": "differential effect on the two cell lines in a dose-dependent manner"},
      {"measurement": "Toxicity / cytotoxicity (in words)", "setting": "PBMC", "value": "without accompanying toxicity"},
      {"measurement": "Cell viability at 0.3 μM", "setting": "PBMC", "value": 90, "unit": "%"},
      {"measurement": "Cell viability at 3 μM", "setting": "PBMC", "value": 86, "unit": "%"},
      {"measurement": "Cell viability at 30 μM", "setting": "PBMC", "value": 94, "unit": "%"},
      {"measurement": "Angiogenic modulating activity (in words)", "setting": "rat aortic ring", "value": "potent anti-antigiogenic activity at higher concentrations and angiogenic activity at lower concentrations"}
    ]},
    {"smiles": "O=C1CCC(N2C(=O)c3ccccc3C2=O)C(=O)N1", "note": "(centres unmarked) [Compound 201, Thalidomide]", "values": [
      {"measurement": "Inhibition of TNF-α secretion at 30 μM (in words)", "setting": "TNF-α; 30 μM", "value": "entirely lacked activity"},
      {"measurement": "IC50", "setting": "TNF-α", "value": "~200", "unit": "µM"},
      {"measurement": "Concentration required for significant activity", "setting": "TNF-α; inhibition of TNF-α secretion", "value": 100, "unit": "µM"},
      {"measurement": "Luciferase reporter activity, +3′-UTR versus −3′-UTR cells (in words)", "setting": "3′-UTR of human TNF-α", "value": "lacked activity at 50 μM"}
    ]}
  ]
}
